According to patent US8741897B2, “Glucocorticoid mimetics, methods of making them, pharmaceutical compositions and uses thereof” (Boehringer Ingelheim Pharmaceuticals Inc., priority 2003, dated 2014):

What follows are molecules tested against T1, human glucocorticoid receptor (GR) complex (Homo sapiens, UniProt P04150) (assay: Glucocorticoid receptor competitive binding assay (fluorescence polarization, TAMRA-labeled dexamethasone probe)). Settings: compounds of Formula (IA).
T1 construct: made in house; host or cells: insect expression system (baculovirus lysate)
T1 sequence (P04150 1-777): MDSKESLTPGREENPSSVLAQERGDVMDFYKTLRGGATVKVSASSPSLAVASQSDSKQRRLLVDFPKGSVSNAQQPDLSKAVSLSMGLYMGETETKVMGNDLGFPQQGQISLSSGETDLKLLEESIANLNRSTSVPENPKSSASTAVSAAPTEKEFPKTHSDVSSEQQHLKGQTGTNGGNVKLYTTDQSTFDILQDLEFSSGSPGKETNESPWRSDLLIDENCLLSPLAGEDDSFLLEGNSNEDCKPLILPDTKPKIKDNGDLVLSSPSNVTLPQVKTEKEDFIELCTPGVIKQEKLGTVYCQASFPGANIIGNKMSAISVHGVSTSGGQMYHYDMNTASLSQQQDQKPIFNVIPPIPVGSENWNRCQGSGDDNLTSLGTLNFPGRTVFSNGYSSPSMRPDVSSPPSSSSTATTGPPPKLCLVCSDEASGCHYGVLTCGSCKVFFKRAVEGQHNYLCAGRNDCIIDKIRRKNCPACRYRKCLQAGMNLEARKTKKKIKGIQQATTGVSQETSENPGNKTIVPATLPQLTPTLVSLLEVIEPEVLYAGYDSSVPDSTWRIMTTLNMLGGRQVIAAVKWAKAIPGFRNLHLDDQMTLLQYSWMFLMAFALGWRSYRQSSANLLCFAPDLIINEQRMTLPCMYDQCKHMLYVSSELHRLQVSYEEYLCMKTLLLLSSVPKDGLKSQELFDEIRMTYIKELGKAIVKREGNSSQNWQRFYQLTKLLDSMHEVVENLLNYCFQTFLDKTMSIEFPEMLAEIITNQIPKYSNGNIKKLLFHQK
Experimental: Compounds of the invention were evaluated for binding to the steroid receptor by a fluorescence polarization competitive binding assay. Detailed descriptions for preparation of recombinant glucocorticoid receptor (GR) complex used in the assay is described in U.S. patent application Pub.
A. Glucocorticoid Receptor Competitive Binding Assay
Step 1. Characterization of the Fluorescent Probe
The wavelengths for maximum excitation and emission of the fluorescent probe should first be measured. An example of such a probe is rhodamine (TAMRA)-labeled dexamethasone.
The affinity of the probe for the steroid receptor was then determined in a titration experiment. The fluorescence polarization value of the probe in assay buffer was measured on an SLM-8100 fluorometer using the excitation and emission maximum values described above. Aliquots of expression vector lysate were added and fluorescence polarization was measured after each addition until no further change in polarization value was observed. Non-linear least squares regression analysis was used to calculate the dissociation constant of the probe from the polarization values obtained for lysate binding to the probe.
Step 2. Screening for Inhibitors of Probe Binding
This assay uses fluorescence polarization (FP) to quantitate the ability of test compounds to compete with tetramethyl rhodamine (TAMRA)-labeled dexamethasone for binding to a human glucocorticoid receptor (GR) complex prepared from an insect expression system. The assay buffer was: 10 mM TES, 50 mM KCl, 20 mM Na2MoO4.2H2O, 1.5 mM EDTA, 0.04% w/v CHAPS, 10% v/v glycerol, 1 mM dithiothreitol, pH 7.4. Test compounds were dissolved to 1 mM in neat DMSO and then further diluted to 10× assay concentration in assay buffer supplemented with 10% v/v DMSO. Test compounds were serially diluted at 10× assay concentrations in 10% DMSO-containing buffer in 96-well polypropylene plates. Binding reaction mixtures were prepared in 96-well black Dynex microtiter plates by sequential addition of the following assay components to each well: 15 μL of 10× test compound solution, 85 μL of GR-containing baculovirus lysate diluted 1:170 in assay buffer, and 50 μL of 15 nM TAMRA-labeled dexamethasone. Positive controls were reaction mixtures containing no test compound; negative controls (blanks) were reaction mixtures containing 0.7 μM to 2 μM dexamethasone. […] IC50 values were determined by iterative non-linear curve fitting of the FP signal data to a 4-parameter logistic equation.

| SMILES | activity in the GR binding assay |
| --- | --- |
| CC(C)(CC(O)(Cc1ccnc2ccccc12)C(F)(F)F)c1ccncc1 (stereo not shown) [1,1,1-Trifluoro-4-methyl-4-pyridin-4-yl-2-quinolin-4-ylmethylpentan-2-ol] | potent activity |
| CN(C)c1ccc(C(C)(C)CC(O)(Cc2cc3ccccc3[nH]2)C(F)(F)F)cc1 (stereo not shown) [4-(4-Dimethylaminophenyl)-1,1,1-trifluoro-2-(1H-indol-2-ylmethyl)-4-methylpentan-2-ol] | potent activity |
| Cc1cccc2c(CC(O)(CC(C)(C)c3cc(F)ccc3O)C(F)(F)F)cc(Cl)nc12 (stereo not shown) [2-[3-(2-Chloro-8-methylquinolin-4-ylmethyl)-4,4,4-trifluoro-3-hydroxy-1,1-dimethylbutyl]-4-fluorophenol] | potent activity |
| CC(C)(CC(O)(Cc1cc2ccc(C(=O)N3CCOCC3)cc2[nH]1)C(F)(F)F)c1cc(F)ccc1O (stereo not shown) [{2-[4-(5-Fluoro-2-hydroxyphenyl)-2-hydroxy-4-methyl-2-trifluoromethylpentyl]-1H-indol-6-yl}morpholin-4-ylmethanone] | potent activity |
| COc1ccc(C)cc1C(C)(C)CC(O)(Cc1cc2c(C)cc(C#N)cc2[nH]1)C(F)(F)F (stereo not shown) [2-[2-Hydroxy-4-(2-methoxy-5-methylphenyl)-4-methyl-2-trifluoromethylpentyl]-4-methyl-1H-indole-6-carbonitrile] | potent activity |
| COc1ccc(F)cc1C(C)(C)CC(O)(Cn1ccc2ncccc21)C(F)(F)F (stereo not shown) [1,1,1-Trifluoro-4-(5-fluoro-2-methoxyphenyl)-4-methyl-2-pyrrolo[3,2-b]pyridin-1-ylmethylpentan-2-ol] | potent activity |
| Cc1ccc(F)cc1C(C)(C)CC(O)(Cc1cc2cc(=O)[nH]cc2[nH]1)C(F)(F)F (stereo not shown) [2-[4-(5-Fluoro-2-methylphenyl)-2-hydroxy-4-methyl-2-trifluoromethylpentyl]-1,6-dihydropyrrolo[2,3-c]pyridin-5-one] | potent activity |
| COc1ccc(F)cc1C(C)(C)CC(O)(Cn1ccc2cccnc21)C(F)(F)F (stereo not shown) [1,1,1-Trifluoro-4-(5-fluoro-2-methoxyphenyl)-4-methyl-2-pyrrolo[2,3-b]pyridin-1-ylmethylpentan-2-ol] | potent activity |
| CC(C)(CC(O)(Cc1cc2cc(C(=O)O)ccc2[nH]1)C(F)(F)F)c1cc(Br)cc2c1OCC2 (stereo not shown) [2-[4-(5-Bromo-2,3-dihydrobenzofuran-7-yl)-2-hydroxy-4-methyl-2-trifluoromethylpentyl]-1H-indole-5-carboxylic acid] | potent activity |
| CC(C)(CC(O)(Cc1cc2ccccc2[nH]1)C(F)(F)F)c1cccc(-c2ccccc2)c1 (stereo not shown) [4-Biphenyl-3-yl-1,1,1-trifluoro-2-(1H-indol-2-ylmethyl)-4-methylpentan-2-ol] | potent activity |
| COc1ccc(F)cc1C(C)(C)CC(O)(Cc1cc2cc(C(=O)OCC[Si](C)(C)C)ccc2[nH]1)C(F)(F)F (stereo not shown) [2-[4-(5-Fluoro-2-methoxyphenyl)-2-hydroxy-4-methyl-2-trifluoromethylpentyl]-1H-indole-5-carboxylic acid-2-trimethylsilanylethyl ester] | potent activity |
| COc1ccc(F)cc1C(C)(C)CC(O)(Cn1ccc2cnccc21)C(F)(F)F (stereo not shown) [1,1,1-Trifluoro-4-(5-fluoro-2-methoxyphenyl)-4-methyl-2-pyrrolo[3,2-c]pyridin-1-ylmethylpentan-2-ol] | potent activity |
| COc1ccc(F)cc1C(C)(C)CC(O)(Cc1cc2cnccc2s1)C(F)(F)F (stereo not shown) [1,1,1-Trifluoro-4-(5-fluoro-2-methoxyphenyl)-4-methyl-2-thieno[3,2-c]pyridin-2-ylmethylpentan-2-ol] | potent activity |
| COc1ccc(F)cc1C(C)(C)CC(O)(Cc1cc2cnccc2o1)C(F)(F)F (stereo not shown) [1,1,1-Trifluoro-4-(5-fluoro-2-methoxyphenyl)-2-furo[3,2-c]pyridin-2-ylmethyl-4-methylpentan-2-ol] | potent activity |
| COc1ccc(F)cc1C(C)(C)CC(O)(Cc1cc2ccccc2s1)C(F)(F)F (stereo not shown) [2-Benzo[b]thiophen-2-ylmethyl-1,1,1-trifluoro-4-(5-fluoro-2-methoxyphenyl)-4-methylpentan-2-ol] | potent activity |
| CC(C)(CC(O)(Cc1cc2cnccc2s1)C(F)(F)F)c1cc(Cl)cc2c1OCC2 (stereo not shown) [4-(5-Chloro-2,3-dihydrobenzofuran-7-yl)-1,1,1-trifluoro-4-methyl-2-thieno[3,2-c]pyridin-2-ylmethylpentan-2-ol] | potent activity |

Now from value to molecule:

| activity in the GR binding assay | SMILES |
| --- | --- |
| potent activity | COc1ccc(F)cc1C(C)(C)CC(O)(Cc1cc2cc(C(=O)NCC(=O)O)ccc2[nH]1)C(F)(F)F (stereo not shown) [({2-[4-(5-Fluoro-2-methoxyphenyl)-2-hydroxy-4-methyl-2-trifluoromethylpentyl]-1H-indole-5-carbonyl}amino)acetic acid] |
| potent activity | COc1ccc(F)cc1C(C)(C)CC(O)(Cc1cc2ccc(C(=O)N(C)C)cc2[nH]1)C(F)(F)F (stereo not shown) [2-[4-(5-Fluoro-2-methoxyphenyl)-2-hydroxy-4-methyl-2-trifluoromethylpentyl]-1H-indole-6-carboxylic acid dimethylamide] |
| potent activity | COc1ccc(F)cc1C(C)(C)CC(O)(Cc1cc2cc(C(=O)NCCCC(=O)O)ccc2[nH]1)C(F)(F)F (stereo not shown) [4-({2-[4-(5-Fluoro-2-methoxyphenyl)-2-hydroxy-4-methyl-2-trifluoromethylpentyl]-1H-indole-5-carbonyl}amino)butyric acid] |
| potent activity | COc1ccc(F)cc1C(C)(C)CC(O)(Cc1cc2cc(C(=O)NCCO)ccc2[nH]1)C(F)(F)F (stereo not shown) [2-[4-(5-Fluoro-2-methoxyphenyl)-2-hydroxy-4-methyl-2-trifluoromethylpentyl]-1H-indole-5-carboxylic acid (2-hydroxyethyl)amide] |
| potent activity | CN(C)C(=O)c1ccc2cc(CC(O)(CC(C)(C)c3cc(F)ccc3O)C(F)(F)F)[nH]c2c1 (stereo not shown) [2-[4-(5-Fluoro-2-hydroxyphenyl)-2-hydroxy-4-methyl-2-trifluoromethylpentyl]-1H-indole-6-carboxylic acid dimethylamide] |
| potent activity | CC(C)(CC(O)(Cc1cc2ccc(C(N)=O)cc2[nH]1)C(F)(F)F)c1cc(F)ccc1O (stereo not shown) [2-[4-(5-Fluoro-2-hydroxyphenyl)-2-hydroxy-4-methyl-2-trifluoromethylpentyl]-1H-indole-6-carboxylic acid amide] |
| potent activity | Cc1ccc(F)cc1C(C)(C)CC(O)(Cc1cc2cc(=O)n(C)cc2[nH]1)C(F)(F)F (stereo not shown) [2-[4-(5-Fluoro-2-methylphenyl)-2-hydroxy-4-methyl-2-trifluoromethylpentyl]-6-methyl-1,6-dihydropyrrolo[2,3-c]pyridin-5-one] |
| potent activity | COc1ccc(F)cc1C(C)(C)CC(O)(Cc1cc2cc(C(=O)N3CCCCC3)ccc2[nH]1)C(F)(F)F (stereo not shown) [{2-[4-(5-Fluoro-2-methoxyphenyl)-2-hydroxy-4-methyl-2-trifluoromethylpentyl]-1H-indol-5-yl}piperidin-1-ylmethanone] |
| potent activity | CNC(=O)c1ccc2[nH]c(CC(O)(CC(C)(C)c3cc(F)ccc3OC)C(F)(F)F)cc2c1 (stereo not shown) [2-[4-(5-Fluoro-2-methoxyphenyl)-2-hydroxy-4-methyl-2-trifluoromethylpentyl]-1H-indole-5-carboxylic acid methylamide] |
